{"source": "patent US20250270513A1", "about": "“METHOD FOR PRODUCING CULTURED TISSUE, AND PREPARATION FOR EXTERNAL APPLICATION” (National University Corporation Ehime University, priority 2019, published 2025)", "system": "NHDF (normal human skin fibroblasts)", "assay": "Monolayer culture of fibroblasts, optical microscope observation (Test Example 3-1)", "assay_type": "cell-based", "details": "24 hours monolayer"}
{"smiles": "OC[C@H]1O[C@H](O[C@H]2O[C@H](CO)[C@@H](O)[C@H](O)[C@H]2O)[C@H](O)[C@@H](O)[C@@H]1O", "note": "[trehalose, α, α-trehalose]", "values": [{"measurement": "increase in the number of cells", "setting": "10 mg/mL trehalose", "value": "slightly suppressed"}, {"measurement": "appearance of damage to cells", "setting": "100 mg/mL trehalose", "value": "no appearance of any damage"}, {"measurement": "cell morphology", "setting": "100 mg/mL trehalose", "value": "the number of spindle-shaped cells was large"}, {"measurement": "increase in the number of cells", "setting": "100 mg/mL trehalose", "value": "further suppressed"}]}
